Drawing on PubChem BioAssay (NCI), this text covers TGI for ten compounds.

Some test systems named below: M14 melanoma; OVCAR-8 ovarian; PC-3 prostate; SK-MEL-2 melanoma; KM12 colon; RXF 393 renal; HL-60(TB) leukemia; SW-620 colon; HCT-116 colon; NCI-H226 lung; U251 CNS; SF-539 CNS; A549 NSCLC; SNB-75 CNS; IGROV1 ovarian; UACC-62 melanoma; T-47D breast; NCI/ADR-RES ovarian.
What all share (assay): inhibition of tumour cell growth, NCI panel, 48 h

The structures appear in SMILES notation.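 A five-concentration, 48-hour dose response in 96-well plates underlies each endpoint, interpolated linearly between surrounding concentrations. TGI: total growth inhibition.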

With `C/C(=N/NC(=S)N(C)CCc1ccccn1)c1cnccn1`, the TGI in the test with M14 melanoma is 7.37 µM; with OVCAR-8 ovarian, 0.385 µM; with PC-3 prostate it was 16.1 µM; with SK-MEL-2 melanoma it was 26.9 µM; with KM12 colon, 19.4 µM; in the test on RXF 393 renal, 13.9 µM. Further, the TGI in the test on HL-60(TB) leukemia was more than 100 µM; with SW-620 colon, 32.2 µM; in the test with HCT-116 colon, 18 µM; in the test with NCI-H226 lung, 0.0122 µM; with U251 CNS, 12.3 µM; in the test on SF-539 CNS, 28 µM. Further, the values for the TGI in the test with A549 NSCLC and in the test on SNB-75 CNS were 11.5 µM and 18.4 µM, respectively.
In the case of `Nc1ccc2ncc(Nc3ccc(F)cc3)nc2c1`, the TGI with M14 melanoma, in the test with OVCAR-8 ovarian, in the test on KM12 colon, in the test on HL-60(TB) leukemia, in the test on SW-620 colon and in the test with HCT-116 colon was more than 100 µM each time. In addition, the TGI in the test with NCI-H226 lung, in the test on U251 CNS, in the test with SF-539 CNS, with A549 NSCLC and in the test on SNB-75 CNS was more than 100 µM each time.
For the compound `COc1cc(C(C#N)NNC(=O)Cc2ccccc2)cc(OC)c1OC` (configuration not stated), the TGI with M14 melanoma, in the test on IGROV1 ovarian, in the test with OVCAR-8 ovarian, in the test on SK-MEL-2 melanoma, in the test with UACC-62 melanoma and in the test with KM12 colon was more than 100 µM throughout. Besides, the TGI with RXF 393 renal, with HL-60(TB) leukemia, in the test on SW-620 colon, in the test with HCT-116 colon, in the test with NCI-H226 lung and in the test on U251 CNS was more than 100 µM in each case. Also, the TGI with SF-539 CNS, with A549 NSCLC and with SNB-75 CNS was more than 100 µM in each case.
Regarding `Nc1ccc(C(=O)NN2C(=O)C(Cl)C2c2cc(Br)cc(Br)c2O)cc1` (configuration not stated), the TGI is 28.2 µM in the test with M14 melanoma; more than 100 µM in the test on IGROV1 ovarian; more than 100 µM in the test with OVCAR-8 ovarian; more than 100 µM in the test with SK-MEL-2 melanoma; 24.8 µM in the test on UACC-62 melanoma; more than 100 µM in the test on KM12 colon. Also, the TGI with RXF 393 renal was 79.8 µM; with HL-60(TB) leukemia, more than 100 µM; with SW-620 colon it was more than 100 µM; in the test with HCT-116 colon it was more than 100 µM; in the test on NCI-H226 lung, 45.8 µM; with U251 CNS, more than 100 µM. Moreover, the TGI in the test with SF-539 CNS is 57 µM; with A549 NSCLC it was 91.1 µM; in the test with SNB-75 CNS it was more than 100 µM.
On to `CCc1cccc(CC)c1Nc1nc2c(s1)C(=O)c1ccccc1C2=O`, for which the TGI in the test on M14 melanoma turned out to be 32.8 µM; in the test on IGROV1 ovarian it was 25.7 µM; in the test on PC-3 prostate it was 30.2 µM; with SK-MEL-2 melanoma, 39.8 µM; in the test on UACC-62 melanoma it was 32.3 µM; with KM12 colon it was 41 µM. Besides, the TGI with RXF 393 renal is 40.3 µM; in the test with HL-60(TB) leukemia, more than 100 µM; in the test with SW-620 colon, 74.6 µM; with HCT-116 colon, 31.4 µM; in the test on U251 CNS, 29.8 µM; with SF-539 CNS it was 49.1 µM. The values for the TGI with A549 NSCLC, in the test with T-47D breast and with SNB-75 CNS were more than 100 µM, more than 100 µM and 25.4 µM, respectively.
As to `COc1ccc([C@@H]2CC(=O)NCCCNCCCCNCCCN2)cc1`, the TGI with M14 melanoma, with IGROV1 ovarian, in the test on OVCAR-8 ovarian, in the test with SK-MEL-2 melanoma, in the test on UACC-62 melanoma and with KM12 colon was more than 100 µM each time. Further, the TGI with RXF 393 renal, in the test with HL-60(TB) leukemia, in the test on SW-620 colon, in the test on HCT-116 colon, in the test on NCI-H226 lung and with U251 CNS was more than 100 µM in each case. Further, the TGI in the test with SF-539 CNS, in the test with A549 NSCLC and in the test on SNB-75 CNS was more than 100 µM throughout.
On to `Cc1ccc(/C=C/C(=O)C(C)C)cc1`, for which the TGI in the test with M14 melanoma, with IGROV1 ovarian, in the test with OVCAR-8 ovarian, with SK-MEL-2 melanoma, in the test on UACC-62 melanoma and with KM12 colon was more than 100 µM throughout. For the same compound, the TGI with RXF 393 renal, in the test on SW-620 colon, in the test on U251 CNS, in the test with A549 NSCLC and with SNB-75 CNS was more than 100 µM in each case.
With `CC(OC1CC(=O)CC2C(=O)C=CC(=O)C12)c1ccccc1` (configuration not stated), the TGI was 33.3 µM with M14 melanoma; 31.4 µM in the test with IGROV1 ovarian; 33.2 µM in the test with OVCAR-8 ovarian; 34.9 µM with SK-MEL-2 melanoma; 29.7 µM in the test with UACC-62 melanoma; 32.4 µM with KM12 colon. Further, the TGI in the test on RXF 393 renal was 35.8 µM; in the test with HL-60(TB) leukemia, 20 µM; in the test with SW-620 colon, 27.3 µM; with HCT-116 colon it was 22.4 µM; in the test with NCI-H226 lung, 36.5 µM; in the test with U251 CNS, 27.9 µM. Moreover, the TGI was 34.5 µM in the test with SF-539 CNS, 40.2 µM in the test with A549 NSCLC and more than 57.7 µM in the test on SNB-75 CNS.
On to `O=[N+]([O-])c1cc2c(cc1O)[nH]c1cccc([N+](=O)[O-])c12`, for which the TGI with M14 melanoma, in the test on OVCAR-8 ovarian, with SK-MEL-2 melanoma, in the test on KM12 colon, in the test on HL-60(TB) leukemia and in the test on SW-620 colon was more than 100 µM in each case. In addition, the TGI in the test with HCT-116 colon, with NCI-H226 lung, in the test on SF-539 CNS, in the test with A549 NSCLC and with SNB-75 CNS was more than 100 µM each time.
In the case of `CC(C)(C)OC(=O)NNC(=O)C1Cc2ccccc2OC1=O` (configuration not stated), the TGI in the test with M14 melanoma, with IGROV1 ovarian, in the test on OVCAR-8 ovarian, with PC-3 prostate, with SK-MEL-2 melanoma and in the test with UACC-62 melanoma was more than 100 µM throughout. Also, the TGI in the test on KM12 colon, with RXF 393 renal, with SW-620 colon, in the test with HCT-116 colon, in the test on NCI/ADR-RES ovarian and in the test with NCI-H226 lung was more than 100 µM throughout. For the same compound, the TGI with U251 CNS, with SF-539 CNS and in the test on A549 NSCLC was more than 100 µM in each case.
